Read-outs that look alike come from different tables or passages of the source.
Columns and labels:
[1] = tested on: Alkaline Phosphatase from Bovine Intestinal Mucosa; test: Alkaline phosphatase triggering of xanthenone-derived phosphate dioxetane; assay type: biochemical
Description: Triggering experiments were conducted using alkaline phosphatase from bovine intestinal mucosa suspension of 5.3 mg of protein (1100 units/mg protein) per mL in 3.2 M (NH4)2 SO4 ]and the phosphate-protected dioxetane at pH 10.3 in 0.75 M 2-amino-2-methyl- 1-propanol buffer. […]. […] The rate of decay of the emission is a function of enzyme concentration while the total light emission is independent of the enzyme concentration because of turnover of the enzyme. The chemiluminescence spectrum for the phosphatase-catalyzed decomposition was obtained at room temperature in the buffer solution.

[2] = assay type: physicochemical
[3] = tested on: Urease; test: Triggering of hydroxy-substituted dioxetane 2a with urease in fluorescent micelles; assay type: biochemical; conditions: 10 μL of 3×10^-3 M 2a, CTAB and 3, room temperature
Description: 5. Enzymatic Triggering of Hydroxy-Substituted Dioxetane 2a with Urease in the Prescence of Fluorescent Micelles. A solution was prepared using 160 mg of CTAB and 12.4 mg of fluorescein surfactant 3 in 200 mL of distilled water. A urea solution was made by dissolving 200 mg of urea in 100 mL of distilled water with EDTA added to give a final concentration of 0.4 mM. The substrate solution for the urease experiments was obtained by mixing 10mL of each stock solution.
Experiments were carried out with urease (Sigma) by incubation at room temperature for periods of 0.5 to 2 hours. […] The intensity of the luminescence provided a measure of the concentration of urease.

[4] = Base-triggered chemiluminescence of dioxetanes 2a/2b in DMSO, water, CTAB micelles and micelles with fluorescent co-surfactant
Excerpt: The chemiluminescence quantum yield (.PHI.CL) for the decomposition of dioxetanes is defined as the ratio of einsteins of chemiluminescence emitted to moles of dioxetane decomposed. Sufficient energy is released during the reaction from the reaction enthalpy (ΔHR) plus the Arrhenius activation energy (Ea) to populate the singlet excited state of one of the carbonyl cleavage products. Therefore, the maximum quantum yield is 1.0. Another parameter of interest is the chemiexcitation quantum yield (.PHI.CE) which is defined as the ratio of excited states formed to dioxetane decomposed. The chemiexcitation quantum yield is related to the chemiluminescence quantum yield via the fluorescence quantum yield of the dioxetane cleavage (.PHI.F) through the equation: .phi.CL =.phi.CE X .phi.F.
The same procedure as those employed in the measurement of the decay kinetics was used for the determination of chemiluminescence quantum yields with the following modifications. An accurately measured aliquot of a dioxetane stock solution of known concentration was added to 3 mL of the pre-thermostatted organic solvent or aqueous buffer. The reaction was then triggered by adding the appropriate chemical reagent or enzyme. The total light intensity was integrated by a photon-counting luminometer using an RCA A-31034A gallium-arsenide PMT cooled to -78° C.
Spectra of the chemiluminescence from chemically or enzymatcally triggered dioxetanes were obtained by conducting the reaction in a 1-cm square quartz cuvette in the sample compartment of a Spex Fluorolog spectrofluorometer at ambient temperature. Correction for the decay of the chemiluminescence intensity during the wavelength scan was made by accumulating the spectrum in a ratio mode so that the observed spectrum was divided by the signal from an auxiliary detector (EMI 9781B) which measures the total signal as a function of time. The monochromator bandpass was typically 18 nm. For weakly emitting samples, several identical scans were performed and added together to improve the signal-to-noise ratio.
1. Triggering the Chemiluminescence of Hydroxy-Substituted Dioxetane 2a with Base.
2. […] Cationic surfactants such as cetyltrimethylammonium bromide (CTAB) can be used to increase rates for chemical triggering of chemiluminescence from appropriately substituted dioxetanes in aqueous solution. […] The dioxetane is solubilized in the micelles formed by the surfactant and NaOH is added to initiate the chemiluminescence. […] Typically, the experiments were carried out with [2b]=9.1×10^-5 M, [CTAB]=2×10^-3 M, and [OH^- ]=9.1×10^-5 M at 37° C.
Similar experiments were conducted with the benzothiazamide surfactant 4. […] Enzymatic Triggering of Phosphate-Substituted Dioxetane 2c.

[5] = assay type: physicochemical; remark: listed apart in the source
Description: Rates for thermal decomposition of the stable dioxetanes were monitored by the decay of chemiluminescence of aerated solutions. A cylindrical Pyrex vial equipped with magnetic stir bar was filled with 3-4 mL of the reaction solvent, sealed with a Teflon-lined screw cap and placed in the thermostatted sample block of the chemiluminescence-measuring luminometer. Temperature control was provided by an external circulating water bath. Appropriate values for the instrument gain and optical slit size were selected. […]. The vial was sealed with a Teflon-lined screw cap to prevent evaporation when high temperatures were used. Measurement of the signal was begun by opening the shutter. The chemiluminescent decay was generally recorded for at least three half-lives. Calculation of the first-order rate constant (k) from the In (Intensity) vs. time data was performed by a computer program utilizing a standard least-squares treatment. The correlation coefficient (r) was typically at least 0.999 and k varied less than 5% between replicate samples.
Activation parameters for decomposition of the dioxetanes were calculated from plots of In k vs. 1/T (Arrhenius eq.) or In k/t vs. 1/T (Eyring eq.) by a standard least-squares linear regression analysis.
Activation Energies for Thermal Decomposition of Dioxetanes

[6] = tested on: firefly luciferase; conditions: cationic surfactant; cited from earlier work
[7] = Fluorescence of ester cleavage product / self-quenching of fluorescer; assay type: physicochemical
Excerpt: However, the chemiluminescent decomposition of this dioxetane can be conveniently triggered at room temperature by removal of the silyl-protecting with fluoride ion to generate the unstable, aryloxide form which cleaves to yield intense blue light.
In general the molar ratio of the dioxetane to fluorescent compound is between about 1,000 to 1 and 1 to 1 whether in solution or in a solid composition.

[8] = thermal decomposition in xylene

O=P(O)(O)Oc1ccc2c(c1)Oc1ccccc1C21OOC12C1CC3CC(C1)CC2C3 (stereo not drawn)
period of chemiluminescence decay ([1]; 4.2×10^-6 M dioxetane, 1.8 μg/mL protein, pH 10.3, 37° C.): 3 min | total light emission vs dioxetane concentration ([1]; pH 10.3, 37° C.): linearly dependent on the dioxetane concentration | background luminescence from non-enzymatic hydrolysis, of enzymatic ([1]; pH 10.3 buffer, over 3 min, 37° C.): 0.2% | half-life ([2]; 25° C.): 4380 days | spontaneous decomposition in aqueous buffers ([2]; aqueous buffers): very slow spontaneous decomposition | activation energy ([2]; thermal): 30.7 kcal/mol

COC1(c2cccc(O)c2)OOC12C1CC3CC(C1)CC2C3 (stereo not drawn) [2a, 4-(3-Hydroxyphenyl)-4-methoxyspiro[1,2-dioxetane-3,2'-adamantane]]
luminescence after incubation with urease [3]: produced chemiluminescence | period of chemiluminescence decay ([4]; 10^-4 M, excess tetra-n-butylammonium hydroxide, DMSO, room temperature): several minutes | chemiluminescence quantum yield (.PHI.CL) ([4]; base in DMSO): 0.25 | light yield (chemiluminescence quantum yield) ([4]; base in water): 8.9×10^-6 | emission maximum for the chemiluminescence ([4]; tetra-n-butylammonium hydroxide in DMSO, room temperature): 470 nm | half-life ([5]; in xylene, 25° C., read-out: t1/2 at 25° C. (converted)): 1500 days | Ea [5, 8]: 28.3 | Log A [5, 8]: 12.5 | k(sec^-1) at 25° C. ([5]; thermal decomposition in xylene, 25° C.): 5.38e-09 s⁻¹

CCCCCCCCCCCCCCCC[N+](C)(C)C.[Br-] [CTAB, cetyltrimethylammonium bromide]
inhibition of the catalytic activity of the luciferase [6]: complete inhibition

CCCCCCCCCCCCCC(=O)Nc1ccc2c(c1)C(=O)OC21c2ccc(O)cc2Oc2cc(O)ccc21 [compound 3]
self-quenching when used alone in solution ([7]; no CTAB): quenches itself when used alone in solution

COC(=O)c1cccc(O)c1 [methyl 3-hydroxylbenzoate]
fluorescence quantum yield (.PHI.^F) ([7]; ester cleavage product under conditions of fluoride triggering): 0.44
